The source of these data is article PMC11999338, “Factor XI localization in human deep venous thrombus and function of activated factor XI on venous thrombus formation and hemostasis” (Research and Practice in Thrombosis and Haemostasis, 2025).

The experiment relates to human thrombus formation in vitro. As to the kind of experiment: In vitro human blood perfusion in flow chamber on collagen and tissue factor (70/s). The settings on record: rivaroxaban 1 μmol/L, low-shear 70/s. The format is cell-based. The procedure: The Ethics Committee of the University of Miyazaki approved this study (approval number O-1160). The Collagen Reagent HORM (Takeda Pharmaceutical, 20 μg/mL) and recombinant tissue factor (Dade Innovin, ×1000, Siemens) were immobilized on glass coverslips (24 × 50 mm) in parallel-plate flow chambers, as described above. Blood from healthy human volunteers who were not on medication was collected using 21-gauge needles into plastic syringes containing a corn trypsin inhibitor (Molecular Innovations, final concentration 10 μg/mL). Anticoagulated whole blood was used for the perfusion. The solvent (n = 10), FXIa inhibitor (ONO-1600586, 3 μmol/L, n = 10) or FXa inhibitor (rivaroxaban, 1 μmol/L, n = 10), and mepacrine (Sigma-Aldrich, final concentration 5 μM) were added to the blood before perfusion. Blood samples were perfused through the chamber using a syringe pump (KDS100, KD Scientific Inc) at a constant flow rate (15 mL/h) to achieve wall shear rates of 70/s. Finally, the surface covering area, fibrin-immunopositive area, and the number of neutrophils were analyzed as described above.
The pre-and postperfused blood samples were collected into a tube containing 3.8% sodium citrate anticoagulant (9:1 v/v). Plasma samples were centrifuged at 1500 × g for 15 minutes at room temperature. FXIa and FXa activities were measured using an automatic blood coagulation analyzer (ACL-TOP, Werfen), as well as FXI-deficient plasma (HemosIL Factor XI Deficient Plasma and HemosIL SynthASil APTT, Werfen) and FX-deficient plasma (HemosIL Factor X Deficient Plasma and HemosIL RecombiPlasTin, Werfen). The plasma levels of prothrombin fragment 1 + 2 were measured using an enzyme-linked immunosorbent assay (Enzygnost F1 + 2 Monoclonal, Siemens).

Turning to `O=C(NC[C@H]1CN(c2ccc(N3CCOCC3=O)cc2)C(=O)O1)c1ccc(Cl)s1` [rivaroxaban], the “FXa activity in the plasma after perfusion” value is “reduced”. The “fibrin formation in the flow chamber” value (ONO-1600586 3 μM) is recorded as “markedly decreased”. For the same molecule, under “ONO-1600586 3 μmol/L”, the leukocyte adhesion result was “did not affect”, the “plasma levels of prothrombin fragment 1 + 2 after perfusion” value is given as “reduced” and the platelet covering area entry is given as “did not affect”.
